pIC50: −log10 of the molar value. In brackets after ≈: the same amount, converted by molar mass.
Key:
Plasmodium falciparum [1] = assay: Antimalarial activity against chloroquine-sensitive Plasmodium falciparum NF54; format: functional, organism-based
Plasmodium berghei [2] = assay: Antimalarial activity against Plasmodium berghei infected in NMRI mice (Mus musculus) assessed as reduction in parasitaemia at 10 mg/kg, perorally administered 1 day post infection; format: functional; set-up: scale not given: the % may be the effect or the level left; details: route oral
Plasmodium berghei [3] = assay: Antimalarial activity against Plasmodium berghei infected in NMRI mice (Mus musculus) assessed as survival time at 3 mg/kg, perorally administered for 3 days post infection; format: functional; details: route oral
[4] = Oral bioavailability in Sprague-Dawley rat at 10 mg/kg; format: ADME, organism-based; details: in vivo
Rattus norvegicus [5] = assay: (§1) Volume of distribution in Sprague-Dawley rat at 10 mg/kg, iv; format: ADME, organism-based; set-up: dose 10 mg/kg, route intravenous; details: in vivo
Cytochrome P450 2D6 [6] = target: T1, Cytochrome P450 2D6 (Homo sapiens, UniProt P10635); assay: Inhibition of CYP2D6; format: ADME
T1 sequence (P10635 whole entry): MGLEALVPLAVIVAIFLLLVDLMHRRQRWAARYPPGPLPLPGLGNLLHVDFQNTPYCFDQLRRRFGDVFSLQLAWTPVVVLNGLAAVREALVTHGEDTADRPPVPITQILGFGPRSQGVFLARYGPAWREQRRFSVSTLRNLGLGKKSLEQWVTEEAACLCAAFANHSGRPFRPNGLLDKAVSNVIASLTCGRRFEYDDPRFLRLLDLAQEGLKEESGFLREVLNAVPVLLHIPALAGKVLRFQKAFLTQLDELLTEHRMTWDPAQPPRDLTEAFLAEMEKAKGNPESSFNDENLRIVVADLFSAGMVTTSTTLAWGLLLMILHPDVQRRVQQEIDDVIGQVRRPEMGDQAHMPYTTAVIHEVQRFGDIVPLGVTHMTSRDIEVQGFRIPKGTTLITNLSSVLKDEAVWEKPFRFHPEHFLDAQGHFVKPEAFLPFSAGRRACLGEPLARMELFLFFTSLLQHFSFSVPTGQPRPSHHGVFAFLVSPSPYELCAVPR

Cytochrome P450 3A4 [7] = target: T2, Cytochrome P450 3A4 (Homo sapiens, UniProt P08684); assay: Inhibition of CYP3A4; format: ADME
T2 sequence (P08684 whole entry): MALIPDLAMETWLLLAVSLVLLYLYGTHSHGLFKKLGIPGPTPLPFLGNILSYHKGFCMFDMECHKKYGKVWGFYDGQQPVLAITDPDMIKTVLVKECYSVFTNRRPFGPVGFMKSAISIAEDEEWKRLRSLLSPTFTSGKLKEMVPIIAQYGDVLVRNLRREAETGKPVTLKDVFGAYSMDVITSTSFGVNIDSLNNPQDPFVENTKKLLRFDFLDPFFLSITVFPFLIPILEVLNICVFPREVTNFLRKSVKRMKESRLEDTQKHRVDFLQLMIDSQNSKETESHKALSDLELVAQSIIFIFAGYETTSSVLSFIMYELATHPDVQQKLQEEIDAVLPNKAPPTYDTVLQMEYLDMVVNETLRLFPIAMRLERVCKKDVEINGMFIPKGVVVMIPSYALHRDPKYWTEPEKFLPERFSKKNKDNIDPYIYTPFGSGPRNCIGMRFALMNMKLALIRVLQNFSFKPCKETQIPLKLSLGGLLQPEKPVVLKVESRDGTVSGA

Plasmodium berghei [8] = assay: Antimalarial activity against Plasmodium berghei infected in NMRI mice (Mus musculus) assessed as reduction in parasitaemia at 3 mg/kg, perorally administered for 3 days post infection; format: functional; set-up: scale not given: the % may be the effect or the level left; details: route oral
in vitro = details: human, liver microsomes
Description: Metabolic stability in human liver microsomes assessed as hepatic extraction ratio

Cytochrome P450 2C9 [9] = target: T3, Cytochrome P450 2C9 (Homo sapiens, UniProt P11712); assay: Inhibition of CYP2C9; format: ADME
T3 sequence (P11712 whole entry): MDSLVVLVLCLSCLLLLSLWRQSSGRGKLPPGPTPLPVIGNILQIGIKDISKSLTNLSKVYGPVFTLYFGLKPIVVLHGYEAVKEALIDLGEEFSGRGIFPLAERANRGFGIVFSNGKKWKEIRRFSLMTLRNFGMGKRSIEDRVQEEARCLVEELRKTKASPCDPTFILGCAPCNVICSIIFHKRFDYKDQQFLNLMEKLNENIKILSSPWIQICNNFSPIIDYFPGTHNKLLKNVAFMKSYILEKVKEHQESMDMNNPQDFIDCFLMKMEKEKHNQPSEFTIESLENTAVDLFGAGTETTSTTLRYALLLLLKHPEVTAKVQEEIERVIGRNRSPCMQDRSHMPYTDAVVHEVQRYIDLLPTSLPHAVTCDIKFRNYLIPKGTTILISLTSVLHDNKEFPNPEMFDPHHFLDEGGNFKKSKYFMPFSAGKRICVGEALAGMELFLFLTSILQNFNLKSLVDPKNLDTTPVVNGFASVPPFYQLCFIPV

[10] = Lipophilicity, log D at pH 7.4; format: physicochemical; details: buffer
Rattus norvegicus [11] = assay: (§2) Half life in Sprague-Dawley rat at 10 mg/kg, iv; format: ADME, organism-based; set-up: dose 10 mg/kg, route intravenous; details: in vivo
Plasmodium berghei [12] = assay: Antimalarial activity against Plasmodium berghei infected in NMRI mice (Mus musculus) assessed as cure rat at 3 mg/kg, perorally administered for 3 days post infection measured after 30 days; format: functional; details: route oral
Cytochrome P450 2C19 = Cytochrome P450 2C19 (Homo sapiens, UniProt P33261); assay: Inhibition of CYP2C19; format: ADME
Sequence of Cytochrome P450 2C19 (P33261 whole entry): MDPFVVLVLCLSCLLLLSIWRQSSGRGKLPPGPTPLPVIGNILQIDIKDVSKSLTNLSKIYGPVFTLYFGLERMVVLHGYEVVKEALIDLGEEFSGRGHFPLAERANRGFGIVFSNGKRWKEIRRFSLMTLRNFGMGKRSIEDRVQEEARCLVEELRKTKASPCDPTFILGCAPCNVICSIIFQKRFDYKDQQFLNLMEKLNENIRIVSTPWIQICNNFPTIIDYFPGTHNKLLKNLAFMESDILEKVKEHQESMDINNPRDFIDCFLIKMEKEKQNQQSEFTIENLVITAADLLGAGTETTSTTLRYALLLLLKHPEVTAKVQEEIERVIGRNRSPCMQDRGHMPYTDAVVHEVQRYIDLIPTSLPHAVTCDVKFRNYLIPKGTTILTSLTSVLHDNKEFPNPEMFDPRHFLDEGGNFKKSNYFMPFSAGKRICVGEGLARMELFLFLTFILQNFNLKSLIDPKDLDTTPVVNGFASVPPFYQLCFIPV

Plasmodium falciparum [13] = assay: Antimalarial activity against chloroquine-resistant Plasmodium falciparum K1; format: functional, organism-based
Cytochrome P450 3A4 [14] = target: T2, Cytochrome P450 3A4; assay: Inhibition of CYP3A4 up to 50 uM; format: ADME
Cytochrome P450 2D6 [15] = target: T1, Cytochrome P450 2D6; assay: Inhibition of CYP2D6 up to 50 uM; format: ADME
Cytochrome P450 2C9 [16] = target: T3, Cytochrome P450 2C9; assay: Inhibition of CYP2C9 up to 50 uM; format: ADME
[17] = Plasma concentration in rat at 100 mg/kg, po after 5 days; format: ADME, organism-based; set-up: dose 100 mg/kg, route oral
Rattus norvegicus [18] = assay: Plasma concentration in rat at 300 mg/kg, po after 5 days; format: ADME, organism-based; set-up: dose 300 mg/kg, route oral; details: in vivo, 120 h
[19] = as §1; format: ADME, organism-based; set-up: dose 10 mg/kg, route intravenous; details: Sprague-Dawley, in vivo
[20] = as §2; format: ADME, organism-based; set-up: dose 10 mg/kg, route intravenous; details: Sprague-Dawley, in vivo
[21] = Blood clearance in Sprague-Dawley rat at 10 mg/kg, iv; format: ADME, organism-based; set-up: dose 10 mg/kg, route intravenous; details: whole blood

| SMILES | IC50 (Plasmodium falciparum [1]) [ng/mL] | Activity (Plasmodium berghei [2]) [%] | IC50 (Plasmodium falciparum [13]) [ng/mL] | other results |
| --- | --- | --- | --- | --- |
| O=C(NCC1CCC2(CC1)OOC1(O2)C2CC3CC(C2)CC1C3)c1ccccn1 (configuration not stated) | 1.1 (≈ 2.76 nM) | 99.6 |  |  |
| NC[C@H]1CC[C@]2(CC1)OOC1(O2)C2CC3CC(C2)CC1C3 (some centres not stated) |  | >99.9 |  | Survival (Plasmodium berghei [3]): 12.8 days; bioavailability [4]: 31%; Vd (Rattus norvegicus [5]): 46 L/kg; Activity (Cytochrome P450 2D6 [6]): Not Active; pIC50 (Cytochrome P450 3A4 [7]): 5.01; Activity (Plasmodium berghei [8]): >99.9%; hepatic extraction ratio (in vitro): 0.24; pIC50 (Cytochrome P450 2C9 [9]): 4.77; logD [10]: 2.6; t1/2 (Rattus norvegicus [11]): 90 min; Activity (Plasmodium berghei [12]): 0%; pIC50 (Cytochrome P450 2C19): 6.96 |
| Cc1ccc(S(=O)(=O)O)cc1.Cc1ccc(S(=O)(=O)O)cc1.O=C(CN1CCNCC1)NC[C@H]1CC[C@]2(CC1)OO[C@]1(O2)C2CC3CC(C2)CC1C3 | 1.4 | 99.7 | 0.59 |  |
| O=CNCC(=O)NC[C@H]1CC[C@]2(CC1)OO[C@]1(O2)C2CC3CC(C2)CC1C3 |  | 98 | 0.9 (≈ 2.38 nM) |  |
| O=C(O)CCC(=O)NC[C@H]1CC[C@]2(CC1)OO[C@]1(O2)C2CC3CC(C2)CC1C3 | 97 (≈ 247 nM) | <40 | 71 (≈ 180 nM) |  |
| O=C1CNC(=O)N1C[C@H]1CC[C@]2(CC1)OO[C@]1(O2)C2CC3CC(C2)CC1C3 | 2.7 (≈ 7.17 nM) | 92 | 1 (≈ 2.66 nM) |  |
| CS(=O)(=O)O.NCC(=O)NC[C@H]1CC[C@]2(CC1)OO[C@]1(O2)C2CC3CC(C2)CC1C3 | 0.29 | 99.9 | 0.36 | Activity (Plasmodium berghei [8]): >99.9%; Activity (Plasmodium berghei [12]): 0% |
| NC1(C(=O)NC[C@H]2CC[C@]3(CC2)OO[C@]2(O3)C3CC4CC(C3)CC2C4)CCCCC1 | 0.44 (≈ 1.05 nM) | 99.9 | 0.24 (≈ 0.573 nM) |  |
| Cc1ccc(S(=O)(=O)O)cc1.NCCC(=O)NC[C@H]1CC[C@]2(CC1)OO[C@]1(O2)C2CC3CC(C2)CC1C3 |  | 99.9 |  | Survival (Plasmodium berghei [3]): 20.8 days; Activity (Plasmodium berghei [8]): >99.9%; Activity (Plasmodium berghei [12]): 0% |
| O=C(CN1CCOCC1)NC[C@H]1CC[C@]2(CC1)OO[C@]1(O2)C2CC3CC(C2)CC1C3.O=C(O)/C=C\C(=O)O | 1.8 | 99 | 0.88 | logD [10]: 5 |
| CS(=O)(=O)O.O=C(NC[C@H]1CC[C@]2(CC1)OO[C@]1(O2)C2CC3CC(C2)CC1C3)C(=O)N1CCNCC1 | 0.54 | 99.9 | 0.69 |  |
| NC(=O)NC[C@H]1CC[C@]2(CC1)OO[C@]1(O2)C2CC3CC(C2)CC1C3 | 1.6 (≈ 4.76 nM) | 98 | 0.56 (≈ 1.66 nM) |  |
| O=C(NC[C@H]1CC[C@]2(CC1)OO[C@]1(O2)C2CC3CC(C2)CC1C3)c1ccncc1 | 1.1 (≈ 2.76 nM) | 99.5 | 2.2 (≈ 5.52 nM) |  |
| CS(=O)(=O)O.O=C(NC[C@H]1CC[C@]2(CC1)OO[C@]1(O2)C2CC3CC(C2)CC1C3)c1c[nH]cn1 | 1.1 | 99.5 | 0.84 |  |
| CCNC(=O)NC[C@H]1CC[C@]2(CC1)OO[C@]1(O2)C2CC3CC(C2)CC1C3 |  | 98 |  |  |
| O=C(NC[C@H]1CC[C@]2(CC1)OO[C@]1(O2)C2CC3CC(C2)CC1C3)N1CCOCC1 |  | 98 |  |  |
| Cc1ccc(S(=O)(=O)O)cc1.O=C(NC[C@H]1CC[C@]2(CC1)OO[C@]1(O2)C2CC3CC(C2)CC1C3)N1CCNCC1 | 0.68 | >99.9 | 0.43 | Survival (Plasmodium berghei [3]): 27 days; Activity (Plasmodium berghei [8]): >99.9%; Activity (Plasmodium berghei [12]): 40% |
| NC1(C(=O)NC[C@H]2CC[C@]3(CC2)OO[C@]2(O3)C3CC4CC(C3)CC2C4)CCCC1 | 0.36 (≈ 0.89 nM) | 99.9 | 0.33 (≈ 0.816 nM) |  |
| Cc1ccc(S(=O)(=O)O)cc1.O=C(CNC1CC1)NC[C@H]1CC[C@]2(CC1)OO[C@]1(O2)C2CC3CC(C2)CC1C3 | 1.2 | 99.6 | 0.39 |  |

| SMILES | IC50 (Plasmodium falciparum [1]) [ng/mL] | Activity (Plasmodium berghei [2]) [%] | IC50 (Plasmodium falciparum [13]) [ng/mL] | other results |
| --- | --- | --- | --- | --- |
| NC(=O)C(=O)NC[C@H]1CC[C@]2(CC1)OO[C@]1(O2)C2CC3CC(C2)CC1C3 | 0.71 (≈ 1.95 nM) | 99.5 | 0.44 (≈ 1.21 nM) |  |
| CC(C)(N)CNC(=O)C(=O)NC[C@H]1CC[C@]2(CC1)OO[C@]1(O2)C2CC3CC(C2)CC1C3.CS(=O)(=O)O | 0.54 | 99.9 | 0.4 | Survival (Plasmodium berghei [3]): 22.8 days; Activity (Plasmodium berghei [8]): >99.9%; Activity (Plasmodium berghei [12]): 0% |
| Cc1ccc(S(=O)(=O)O)cc1.N[C@H]1CC[C@H](NC(=O)C(=O)NC[C@H]2CC[C@]3(CC2)OO[C@]2(O3)C3CC4CC(C3)CC2C4)CC1 | 1.3 | 99.9 | 0.7 | Activity (Cytochrome P450 3A4 [14]): Not Active; Survival (Plasmodium berghei [3]): 25.2 days; Activity (Cytochrome P450 2D6 [15]): Not Active; Activity (Cytochrome P450 2C9 [16]): Not Active; Activity (Plasmodium berghei [8]): >99.9%; Activity (Plasmodium berghei [12]): 40%; concentration at 120 h [17]: 3700 ng/mL; Cp (Rattus norvegicus [18]): 100 mg/kg |
| O=C(NC[C@H]1CC[C@]2(CC1)OO[C@]1(O2)C2CC3CC(C2)CC1C3)c1ccccn1 |  | 98 |  |  |
| CC(=O)NC[C@H]1CC[C@]2(CC1)OO[C@]1(O2)C2CC3CC(C2)CC1C3 | 0.84 (≈ 2.5 nM) | 98 | 0.63 (≈ 1.88 nM) |  |
| Cc1ccc(S(=O)(=O)O)cc1.O=C(CN1CCS(=O)(=O)CC1)NC[C@H]1CC[C@]2(CC1)OO[C@]1(O2)C2CC3CC(C2)CC1C3 | 5.5 | 86 | 4.6 | logD [10]: 4.5 |
| O=C(O)C(=O)NC[C@H]1CC[C@]2(CC1)OO[C@]1(O2)C2CC3CC(C2)CC1C3 | 59 (≈ 161 nM) | <40 | 58 (≈ 159 nM) |  |
| CS(=O)(=O)CC(=O)NCC1CC[C@]2(CC1)OO[C@]1(O2)C2CC3CC(C2)CC1C3 (some centres not stated) |  | 99.2 |  |  |
| CS(=O)(=O)O.O=C(NC[C@H]1CC[C@]2(CC1)OO[C@]1(O2)C2CC3CC(C2)CC1C3)C(=O)NC1CCNCC1 | 0.79 | >99.9 | 0.56 | Survival (Plasmodium berghei [3]): 22.4 days; Activity (Plasmodium berghei [8]): >99.9%; Activity (Plasmodium berghei [12]): 20% |
| CN1CCN(C(=O)NC[C@H]2CC[C@]3(CC2)OO[C@]2(O3)C3CC4CC(C3)CC2C4)CC1 | 0.34 (≈ 0.81 nM) | 99.9 | 0.2 (≈ 0.477 nM) |  |
| CC(C)(N)C(=O)NC[C@H]1CC[C@]2(CC1)OO[C@]1(O2)C2CC3CC(C2)CC1C3 | 0.36 (≈ 0.951 nM) | 99.9 | 0.5 (≈ 1.32 nM) | Activity (Plasmodium berghei [8]): >99.9%; Activity (Plasmodium berghei [12]): 0% |
| CN(C)C(=O)NC[C@H]1CC[C@]2(CC1)OO[C@]1(O2)C2CC3CC(C2)CC1C3 | 1.5 (≈ 4.12 nM) | 99.4 | 1.1 (≈ 3.02 nM) |  |
| Nc1n[nH]c(C(=O)NC[C@H]2CC[C@]3(CC2)OO[C@]2(O3)C3CC4CC(C3)CC2C4)n1 |  | 99.8 |  |  |
| Cc1ccc(S(=O)(=O)O)cc1.O=C(CNCC1CC1)NC[C@H]1CC[C@]2(CC1)OO[C@]1(O2)C2CC3CC(C2)CC1C3 | 1.2 |  | 0.36 |  |
| O=C(NC[C@H]1CC[C@]2(CC1)OO[C@]1(O2)C2CC3CC(C2)CC1C3)c1cccnc1 |  | 99.6 | 0.97 (≈ 2.43 nM) |  |
| C[C@H]1[C@@H](O)O[C@@H]2O[C@@]3(C)CC[C@H]4[C@H](C)CC[C@@H]1[C@@]24OO3 [ARTENIMOL] |  |  |  | Vd [19]: 3 L/kg; half-life [20]: 26 min; clearance [21]: 72 mL/min/kg |
| C[C@H]1[C@H](OC(=O)CCC(=O)O)O[C@@H]2O[C@@]3(C)CC[C@H]4[C@H](C)CC[C@@H]1[C@@]24OO3 [ARTESUNATE] |  | 67 |  | Activity (Plasmodium berghei [8]): 70%; logD [10]: 3.5; Activity (Plasmodium berghei [12]): 0% |
| CCN(CC)CCCC(C)Nc1ccnc2cc(Cl)ccc12 (configuration not stated) [CHLOROQUINE] |  |  |  | Survival (Plasmodium berghei [3]): 9.4 days; Activity (Plasmodium berghei [12]): 0% |
| OC(c1cc(C(F)(F)F)nc2c(C(F)(F)F)cccc12)C1CCCCN1 (configuration not stated) [MEFLOQUINE] |  |  |  | Activity (Plasmodium berghei [12]): 0% |

Source: ChEMBL document CHEMBL1153189, “The comparative antimalarial properties of weak base and neutral synthetic ozonides” (Bioorg Med Chem Lett, 2010)
